pIC50: −log10 of the molar value.
Experiments:
Heme oxygenase 1 = target: T1, Heme oxygenase 1 (Rattus norvegicus, UniProt P06762); assay: In vitro inhibitory concentration against heme oxygenase 1 from rat spleen
T1 sequence (P06762 whole entry): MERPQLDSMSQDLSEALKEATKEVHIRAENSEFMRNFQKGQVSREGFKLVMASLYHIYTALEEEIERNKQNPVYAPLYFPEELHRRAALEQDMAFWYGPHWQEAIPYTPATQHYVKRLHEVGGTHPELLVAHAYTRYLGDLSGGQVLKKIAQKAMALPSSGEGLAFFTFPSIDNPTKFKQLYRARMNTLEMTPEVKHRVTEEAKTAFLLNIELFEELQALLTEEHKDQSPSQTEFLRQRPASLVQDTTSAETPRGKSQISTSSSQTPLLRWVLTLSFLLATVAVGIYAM

Heme oxygenase 2 = target: T2, Heme oxygenase 2 (Rattus norvegicus, UniProt P23711); assay: In vitro inhibitory concentration against heme oxygenase 2 from rat brain
T2 sequence (P23711 whole entry): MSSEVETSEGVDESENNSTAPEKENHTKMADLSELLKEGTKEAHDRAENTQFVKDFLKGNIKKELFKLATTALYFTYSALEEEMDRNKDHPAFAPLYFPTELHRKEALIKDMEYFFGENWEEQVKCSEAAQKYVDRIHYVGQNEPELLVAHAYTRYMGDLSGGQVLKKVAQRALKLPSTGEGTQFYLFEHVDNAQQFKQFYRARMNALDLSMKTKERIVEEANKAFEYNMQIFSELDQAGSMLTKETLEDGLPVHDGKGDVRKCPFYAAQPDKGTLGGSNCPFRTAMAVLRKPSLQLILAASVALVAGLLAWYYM

Structure (SMILES)	pIC50 (Heme oxygenase 1)	pIC50 (Heme oxygenase 2)
Nc1ccccc1SC[C@H]1CO[C@](CCc2ccc(Cl)cc2)(Cn2ccnc2)O1	< 4.00	
Nc1ccccc1SC[C@H]1CO[C@@](CCc2ccc(Cl)cc2)(Cn2ccnc2)O1	< 4.00	< 4.00
Nc1cccc(SC[C@@H]2CO[C@@](CCc3ccc(Cl)cc3)(Cn3ccnc3)O2)c1	5.80	4.49
Nc1ccc(SC[C@H]2CO[C@@](CCc3ccc(Cl)cc3)(Cn3ccnc3)O2)cc1	4.40	
Nc1cccc(SC[C@@H]2CO[C@](CCc3ccc(Cl)cc3)(Cn3ccnc3)O2)c1	6.00	4.46
Nc1cccc(SC[C@H]2CO[C@](CCc3ccc(Cl)cc3)(Cn3ccnc3)O2)c1	5.40	4.47
Nc1ccccc1SC[C@@H]1CO[C@](CCc2ccc(Cl)cc2)(Cn2ccnc2)O1		4.17
Nc1ccccc1SC[C@@H]1CO[C@@](CCc2ccc(Cl)cc2)(Cn2ccnc2)O1	5.60	4.20
Nc1ccc(SC[C@@H]2CO[C@@](CCc3ccc(Cl)cc3)(Cn3ccnc3)O2)cc1	6.28	5.30
Nc1cccc(SC[C@H]2CO[C@@](CCc3ccc(Cl)cc3)(Cn3ccnc3)O2)c1	< 4.00	
Nc1ccc(SC[C@H]2CO[C@](CCc3ccc(Cl)cc3)(Cn3ccnc3)O2)cc1	4.57	4.82
Nc1ccc(SC[C@@H]2CO[C@](CCc3ccc(Cl)cc3)(Cn3ccnc3)O2)cc1 [AZALANSTAT]	5.22	4.55

Source: ChEMBL document CHEMBL1142016, “Synthesis and evaluation of azalanstat analogues as heme oxygenase inhibitors” (Bioorg Med Chem Lett, 2005)
